Tests used:
[1] = biological target: T1, Human CB1 receptor (hCB1) (Homo sapiens, UniProt P21554); experiment: hCB1 receptor binding (3H-CP55,940 displacement); conditions: human CB1 receptor membranes
T1 construct: purchased Receptor Biology
Protocol: hCB1 and hCB2 Receptor Binding
Human CB1 receptor from Receptor Biology (hCB1) or human CB2 receptor from BioSignal (hCB2) membranes are thawed at 37° C., passed 3 times through a 25-gauge blunt-end needle, diluted in the cannabinoid binding buffer (50 mM Tris, 2.5 mM EDTA, 5 mM MgCl2, and 0.5 mg/mL BSA fatty acid free, pH 7.4) and aliquots containing the appropriate amount of protein are distributed into 96-well plates. The IC50 of the compounds of the invention at hCB1 and hCB2 are evaluated from 10-point dose-response curves done with ^3H-CP55,940 at 20000 to 25000 dpm per well (0.17-0.21 nM) in a final volume of 300 μl. The total and non-specific binding are determined in the absence and presence of 0.2 μM of HU210 respectively. The plates are vortexed and incubated for 60 minutes at room temperature, filtered through Unifilters GF/B (presoaked in 0.1% polyethyleneimine) with the Tomtec or Packard harvester using 3 mL of wash buffer (50 mM Tris, 5 mM MgCl2, 0.5 mg BSA pH 7.0). The filters are dried for 1 hour at 55° C. The radioactivity (cpm) is counted in a TopCount (Packard) after adding 65 μl/well of MS-20 scintillation liquid.
Based on the above assays, the dissociation constant (Ki) for a particular compound of the invention towards a particular receptor is determined using the following equation: […]

[2] = biological target: T1, Human CB1 receptor (hCB1); experiment: hCB1 GTPγS binding; assay type: biochemical; conditions: human CB1 receptor membranes, GTPγ35S; for EC50: unit inferred; for Emax: maximal stimulated binding determined with 10 μM Win 55,212-2
Protocol: hCB1 and hCB2 GTPγS Binding
Human CB1 receptor from Receptor Biology (hCB1) or human CB2 receptor membranes (BioSignal) are thawed at 37° C., passed 3 times through a 25-gauge blunt-end needle and diluted in the GTPγS binding buffer (50 mM Hepes, 20 mM NaOH, 100 mM NaCl, 1 mM EDTA, 5 mM MgCl2, pH 7.4, 0.1% BSA). The EC50 and Emax of the compounds of the invention are evaluated from 10-point dose-response curves done in 300 μl with the appropriate amount of membrane protein and 100000-130000 dpm of GTPg^35S per well (0.11-0.14 nM). The basal and maximal stimulated binding is determined in absence and presence of 1 μM (hCB2) or 10 μM (hCB1) Win 55,212-2 respectively. The membranes are pre-incubated for 5 minutes with 56.25 μM (hCB2) or 112.5 μM (hCB1) GDP prior to distribution in plates (15 μM (hCB2) or 30 μM (hCB1) GDP final). The plates are vortexed and incubated for 60 minutes at room temperature, filtered on Unifilters GF/B (presoaked in water) with the Tomtec or Packard harvester using 3 ml of wash buffer (50 mM Tris, 5 mM MgCl2, 50 mM NaCl, pH 7.0). The filters are dried for 1 hour at 55° C. The radioactivity (cpm) is counted in a TopCount (Packard) after adding 65 μl/well of MS-20 scintillation liquid. Antagonist reversal studies are done in the same way except that (a) an agonist dose-response curve is done in the presence of a constant concentration of antagonist, or (b) an antagonist dose-response curve is done in the presence of a constant concentration of agonist.

T1 sequence (P21554 whole entry): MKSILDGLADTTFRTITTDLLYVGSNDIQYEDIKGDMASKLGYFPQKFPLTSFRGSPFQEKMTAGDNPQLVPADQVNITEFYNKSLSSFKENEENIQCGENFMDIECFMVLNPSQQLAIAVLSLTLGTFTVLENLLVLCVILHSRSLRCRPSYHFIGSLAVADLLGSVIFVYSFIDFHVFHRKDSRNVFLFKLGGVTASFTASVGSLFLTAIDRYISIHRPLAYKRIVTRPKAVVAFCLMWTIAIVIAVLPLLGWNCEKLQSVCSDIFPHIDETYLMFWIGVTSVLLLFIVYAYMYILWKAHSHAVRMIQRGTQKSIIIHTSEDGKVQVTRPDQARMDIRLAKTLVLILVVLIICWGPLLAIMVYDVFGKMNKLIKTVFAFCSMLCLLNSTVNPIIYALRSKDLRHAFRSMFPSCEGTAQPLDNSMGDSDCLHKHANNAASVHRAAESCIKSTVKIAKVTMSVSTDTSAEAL

For `CC(C)(C)c1nc2cc(C(=O)N3CCC(C(=O)NC4CC4)CC3)ccc2n1CC1CCC(F)(F)CC1`, the Ki [1] was 19.2 nM, the EC50 [2] was 16.7 nM and the Emax [2] was 115%.

`CC(C)(C)c1nc2cc(C(=O)N3CCC(C(=O)NC4CC4)CC3)ccc2n1CC1CCCCC1` showed a Ki [1] of 23.8 nM, an EC50 [2] of 37.7 nM and an Emax [2] of 134%.

With `Cc1cc(NC(=O)C2CCN(C(=O)c3ccc4c(c3)nc(C(C)(C)C)n4CC3CCC(F)(F)CC3)CC2)no1` the EC50 [2] was 1770 nM and the Emax [2] was 132%.
